Results published in patent US9034403B2, “Yeast extract containing γ-Glu-X or γ-Glu-X-Gly and a method for producing the same” (AJINOMOTO CO., INC., priority 2010, dated 2015).

Test system: S288C PADH1-HGT1 (Hgt1p overproducing strain) and S288C
Assay: Peptide uptake of Hgt1p overproducing strain and parental strain S288C, intracellular content on dry weight cell
Format: cell-based, Saccharomyces cerevisiae
Protocol: One loop of the S288C strain was inoculated into SD medium (50 ml in a 500 ml-volume Sakaguchi flask), and cultured at 30° C. for 24 hours with shaking at a velocity of 120 rpm. Absorbance of the obtained culture broth was measured, the culture broth was inoculated into SD medium (400 ml in a 2 L-volume conical flask with baffle fins, two or more flasks) so that OD660 was 0.01 at the start of the culture, and culture was performed at 30° C. for 19 hours with shaking by rotation at a velocity of 120 rpm. After 19 hours, γ-Glu-Val-Gly aqueous solutions of various concentrations were added to obtain predetermined concentrations, and the culture was continued for 1 hour. Using these culture broths, the γ-Glu-Val-Gly content in dry cells was calculated in the same manner as in Example 2. Furthermore, the solid content of the extract was calculated, and the amount of γ-Glu-Val-Gly in the solid content was also calculated.
The S288C PADH1-HGT1, Hgt1p overproducing strain obtained in Example 12, and its parental strain S288C, were evaluated for their ability to take up γ-Glu-Val-Gly in the same manners as described in Example 4. The amount of γ-Glu-Val-Gly added into the medium was 100 ppm as a final concentration. As a result, intracellular content of γ-Glu-Val-Gly in S288C on the dry weight cell was about 0.9%, but intracellular content of γ-Glu-Val-Gly in S288C PADH1-HGT1 on the dry weight cell was about 4.9%.
S288C PADH1-HGT1, Hgt1p overproducing strain obtained in Example 12, and its parental strain S288C were evaluated for their γ-Glu-nVal-Gly uptake abilities in the same manners as described in Example 4 and Example 13. The amount of γ-Glu-nVal-Gly added to the medium was 100 ppm as a final concentration.

## CC(C)[C@H](NC(=O)CC[C@H](N)C(=O)O)C(=O)NCC(=O)O [γ-Glu-Val-Gly]
S288C PADH1-HGT1, γ-Glu-Val-Gly 100 ppm added into the medium
  intracellular content of γ-Glu-Val-Gly on the dry weight cell: about 4.9%
S288C, γ-Glu-Val-Gly 100 ppm added into the medium
  intracellular content of γ-Glu-Val-Gly on the dry weight cell: about 0.9%
S288C, γ-Glu-nVal-Gly 100 ppm added to the medium
  intracellular content of γ-Glu-Val-Gly on the dry weight cell: about 0.09%
